Legend:
suPAR [1] = assay: CCl4-induced liver fibrosis: plasma suPAR; assay type: in vivo; details: CCl4-treated mice vs untreated controls; FIGS. 5B and 16D
Protocol: In vivo induction of liver fibrosis. C57BL/6J mice were treated twice a week with 12 consecutive intraperitoneal (i.p.) injections of 1 ml/kg carbon tetrachloride (CCl4) to induce liver fibrosis. For murine CAR T cell studies, cyclophosphamide (200 mg/kg) was administered 24 hours before T cell injection. Mice received 3×10^6 CAR^+ T cells or untransduced T cells and CCl4 was continuously administered at the same dose and interval after T cell injection until day 20 post CAR injection. Animals were sacrificed 48-72 h after the last CCl4 injection. NSG mice were treated twice a week with 8 consecutive i.p. injections of 1 ml/kg CCl4 to induce liver fibrosis. For human CAR T cell studies, mice received 0.5×10^6 CAR T cells or untransduced T cells and CCl4 was continued once a week after CAR T injection until day 10 post CAR administration, when animals were sacrificed 48-72 h after the last CCl4 injection. Venous blood was collected by facial vein puncture.
(§1) Detection of suPAR levels. suPAR levels from cell culture supernatant of murine plasma were evaluated by enzyme-linked immunosorbent assay (ELISA) according to the manufacturer's protocol (R&D systems, DY531 (mouse) or DY807 (human)).

suPAR [2] = assay: doxorubicin-induced senescence in vivo: plasma suPAR by ELISA; design: species or system C57BL/6J mice; details: doxorubicin i.p. day 0 and day 10; blood at days 10 and 20; FIG. 7D
Protocol: In vivo induction of doxorubicin-Induced senescence. […] Venous blood was collected by facial vein puncture at days 10 and 20 after initial doxorubicin administration. Detection of suPAR levels. suPAR levels from cell culture supernatant of murine plasma were evaluated by enzyme-linked immunosorbent assay (ELISA) according to the manufacturer's protocol (R&D systems, DY531 (mouse) or DY807 (human)).

suPAR [3] = assay: bleomycin-induced lung fibrosis: plasma suPAR; assay type: in vivo, NSG mice; details: intratracheal bleomycin; FIGS. 9C-9E
Protocol: as §1

## ClC(Cl)(Cl)Cl [CCl4, carbon tetrachloride]
suPAR [1]
  plasma suPAR levels: elevation of plasma suPAR levels relative to untreated controls

## COc1cccc2c1C(=O)c1c(O)c3c(c(O)c1C2=O)C[C@@](O)(C(=O)CO)C[C@@H]3O[C@H]1C[C@H](N)[C@H](O)[C@H](C)O1 [doxorubicin]
suPAR [2]
  plasma levels of suPAR: time-dependent and dose-dependent correlation with the plasma levels of suPAR

## bleomycin
suPAR [3]
  plasma levels of suPAR: Higher levels of suPAR

From patent publication US20220098320A1, “SENOLYTIC CAR-T CELLS TARGETING UPAR, A CELL SURFACE AND SECRETED […]” (MEMORIAL SLOAN KETTERING CANCER CENTER, priority 2019, published 2022)
